Assay results published in ChEMBL document CHEMBL5380834, “Design, Synthesis, and Biological Evaluation of Androgen Receptor (AR) Antagonist-Heat Shock Protein 90 (Hsp90) Inhibitor Conjugates for Targeted Therapy of Castration-Resistant Prostate Cancer” (J Med Chem, 2023).
Values belong to the compound of their own block, whether it stands above or below them. The source made the active and inactive calls. The calls are words filed in the database; no cut-off is given here.

Tests used:
[1] = tested on: LNCaP; assay: Cytotoxicity against AR-positive human LNCaP cells assessed as inhibition of cell growth incubated for 5 days in presence of AR agonist, R1881 in charcoal stripped serum by WST-1 assay; type: functional, cell-based; conditions: 120 h
[2] = tested on: CWR22R; assay: Cytotoxicity against human 22Rv1 cells assessed as inhibition of cell growth incubated for 5 days in presence of AR agonist, R1881 by WST-1 assay; type: functional, cell-based; conditions: 22Rv1, 120 h
[3] = tested on: CWR22R; assay: Antitumor activity against human 22Rv1 cells xenografted in BALB/c nude mouse assessed as reduction in tumor size at 5 mg/kg, ip administered once every 4th day for 3 weeks; type: functional, organism-based
[4] = tested on: Androgen receptor (Homo sapiens), P10275 [UNDEFINED MUTATION]; assay: Induction of AR-V7 degradation in human 22Rv1 cells at 100 nM by Western blot analysis; type: cell-based; conditions: time <= 48.0 hrs, TDE = time-dependent effect
[5] = tested on: CWR22R; assay: Antitumor activity against human 22Rv1 cells xenografted in BALB/c nude mouse assessed as reduction in tumor growth at 5 mg/kg, ip administered once every 4th day for 3 weeks; type: functional, organism-based
[6] = tested on: LNCaP; assay: Induction of apoptosis in human LNCaP cells assessed as increase in caspase-3 level at 1 uM measured after 48 hrs by Western blot analysis; type: functional, cell-based
[7] = tested on: LNCaP; assay: Induction of apoptosis in human LNCaP cells assessed as increase in PARP level at 1 uM measured after 48 hrs by Western blot analysis; type: functional, cell-based
[8] = tested on: CWR22R; assay: Induction of apoptosis in human 22Rv1 cells assessed as increase in caspase-3 level at 1 uM measured after 48 hrs by Western blot analysis; type: functional, cell-based
[9] = tested on: CWR22R; assay: Induction of apoptosis in human 22Rv1 cells assessed as increase in PARP level at 1 uM measured after 48 hrs by Western blot analysis; type: functional, cell-based
[10] = Drug uptake in human RWPE-1 cells assessed as increase in fluorescence at 1 uM incubated for 1 hr by DAPI staining based confocal microscopy; type: ADME, cell-based; conditions: rwpe-1, 1 h
[11] = Drug uptake in human HEK293T cells assessed as increase in fluorescence at 1 uM incubated for 1 hr by DAPI staining based confocal microscopy; type: ADME, cell-based; conditions: hek-293t
[12] = Drug uptake in human 22Rv1 cells assessed as increase in fluorescence at 1 uM incubated for 1 hr by DAPI staining based confocal microscopy; type: ADME, cell-based; conditions: cwr22r
[13] = tested on: Androgen receptor (Homo sapiens), P10275 [UNDEFINED MUTATION]; assay: Induction of AR-V7 degradation in human 22Rv1 cells measured upto 24 hrs by Western blot analysis; type: cell-based; conditions: dose 1000.0 nM
[14] = tested on: CWR22R; assay: Antitumor activity against human 22Rv1 cells xenografted in BALB/c nude mouse assessed as downregulation of AR-FL level at 2.5 mg/kg, ip administered once every 4th day for 3 weeks; type: functional, organism-based
[15] = tested on: CWR22R; assay: Antitumor activity against human 22Rv1 cells xenografted in BALB/c nude mouse assessed as downregulation of AR-V7 level at 2.5 mg/kg, ip administered once every 4th day for 3 weeks; type: functional, organism-based
[16] = Drug uptake in human RWPE-1 cells assessed as drug internalization at 1 uM incubated for 1 hr by DAPI staining based confocal microscopy; type: ADME, cell-based; conditions: rwpe-1, 1 h
[17] = Drug uptake in HEK293T cells assessed as drug internalization at 1 uM incubated for 1 hr by DAPI staining based confocal microscopy; type: ADME, cell-based; conditions: human, hek-293t
[18] = Drug uptake in human 22Rv1 cells assessed as drug internalization at 1 uM incubated for 1 hr by DAPI staining based confocal microscopy; type: ADME, cell-based; conditions: cwr22r
[19] = Drug uptake in tumor of nude mouse xenografted with human 22Rv1 cells assessed as increase in fluorescence signal at 0.5 mg/kg, iv measured after 2 hrs by fluorescence imaging analysis; type: ADME, organism-based, Neoplasm, CWR22R; conditions: in vivo
[20] = Drug uptake in kidney of nude mouse xenografted with human 22Rv1 cells assessed as increase in fluorescence signal at 0.5 mg/kg, iv measured after 2 hrs by fluorescence imaging analysis; type: ADME, organism-based, CWR22R; conditions: in vivo
[21] = Drug uptake in liver of nude mouse xenografted with human 22Rv1 cells assessed as increase in fluorescence signal at 0.5 mg/kg, iv measured after 2 hrs by fluorescence imaging analysis; type: ADME, organism-based, CWR22R; conditions: in vivo
[22] = Drug uptake in Lung of nude mouse xenografted with human 22Rv1 cells assessed as increase in fluorescence signal at 0.5 mg/kg, iv measured after 2 hrs by fluorescence imaging analysis; type: ADME, organism-based, CWR22R; conditions: in vivo

Sequence of Androgen receptor (Homo sapiens), P10275 [UNDEFINED MUTATION] (P10275 whole entry, looked up, stated change not applied): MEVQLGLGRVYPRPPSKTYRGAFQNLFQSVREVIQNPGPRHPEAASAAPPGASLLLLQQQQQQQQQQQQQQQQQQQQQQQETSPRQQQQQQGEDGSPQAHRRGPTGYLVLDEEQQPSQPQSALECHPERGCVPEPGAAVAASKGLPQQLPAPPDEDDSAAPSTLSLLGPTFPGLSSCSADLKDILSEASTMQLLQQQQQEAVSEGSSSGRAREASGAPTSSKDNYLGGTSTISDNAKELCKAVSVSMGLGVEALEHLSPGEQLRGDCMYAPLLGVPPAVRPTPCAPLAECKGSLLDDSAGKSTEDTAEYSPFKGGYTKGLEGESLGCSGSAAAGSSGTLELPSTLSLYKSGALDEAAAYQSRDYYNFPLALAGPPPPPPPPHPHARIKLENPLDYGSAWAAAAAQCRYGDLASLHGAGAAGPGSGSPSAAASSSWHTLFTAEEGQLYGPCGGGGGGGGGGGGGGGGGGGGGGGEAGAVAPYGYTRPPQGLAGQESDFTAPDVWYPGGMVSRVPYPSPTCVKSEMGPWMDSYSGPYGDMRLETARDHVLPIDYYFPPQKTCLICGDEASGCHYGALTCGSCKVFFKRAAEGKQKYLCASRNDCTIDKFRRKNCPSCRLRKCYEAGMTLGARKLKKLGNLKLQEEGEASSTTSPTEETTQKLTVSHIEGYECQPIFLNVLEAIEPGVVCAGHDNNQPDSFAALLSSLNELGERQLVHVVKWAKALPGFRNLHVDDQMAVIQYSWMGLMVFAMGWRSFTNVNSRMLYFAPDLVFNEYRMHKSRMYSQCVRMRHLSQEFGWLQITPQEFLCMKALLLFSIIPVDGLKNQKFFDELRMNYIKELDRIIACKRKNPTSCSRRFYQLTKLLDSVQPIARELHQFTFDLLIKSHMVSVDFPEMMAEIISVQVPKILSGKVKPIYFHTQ

Structure (SMILES): CC(C)c1cc(-c2n[nH]c(=O)n2-c2ccc(CN3CCN(CC4CCN(c5ncc(C(=O)N[C@H]6CC[C@H](Oc7ccc(C#N)c(Cl)c7)CC6)cn5)CC4)CC3)cc2)c(O)cc1O
IC50 [1]: 73.8 nM | IC50 [2]: 34.3 nM | Activity [3]: Active

Structure (SMILES): CC(C)c1cc(-c2n[nH]c(=O)n2-c2ccc(CN3CCN(CC4CCN(c5ncc(C(=O)N[C@H]6C(C)(C)[C@H](Oc7ccc(C#N)c(Cl)c7)C6(C)C)cn5)CC4)CC3)cc2)c(O)cc1O
IC50 [1]: 188 nM | IC50 [2]: 212 nM

Structure (SMILES): CC(C)c1cc(-c2n[nH]c(=O)n2-c2ccc(CN3CCN(C(=O)CCCCCNC(=O)c4ccc(C(=O)N[C@H]5CC[C@H](Oc6ccc(C#N)c(Cl)c6)CC5)cc4)CC3)cc2)c(O)cc1O
IC50 [1]: > 1000 nM | IC50 [2]: > 1000 nM

Activity [4]: Tde
Structure (SMILES): COc1cc(OC)c(C(C)C)cc1-c1nn(C)c(=O)n1-c1ccc(CN2CCN(CC3CCN(CC4CCN(c5ncc(C(=O)N[C@H]6CC[C@H](Oc7ccc(C#N)c(Cl)c7)CC6)cn5)CC4)CC3)CC2)cc1
IC50 [1]: > 1000 nM | IC50 [2]: > 1000 nM | Activity [5]: Active

Structure (SMILES): N#Cc1ccc(O[C@H]2CC[C@H](NC(=O)c3cccnn3)CC2)cc1Cl
IC50 [1]: 336 nM | Activity [6]: inactive | Activity [7]: inactive | Activity [8]: inactive | Activity [9]: inactive

Structure (SMILES): CC(C)c1cc(-c2n[nH]c(=O)n2-c2ccc(CN3CCN(C(=O)CCCCCCNC(=O)c4ccc(C(=O)N[C@H]5CC[C@H](Oc6ccc(C#N)c(Cl)c6)CC5)cc4)CC3)cc2)c(O)cc1O
IC50 [1]: > 1000 nM | IC50 [2]: > 1000 nM

Structure (SMILES): CC(C)c1cc(-c2n[nH]c(=O)n2-c2ccc(CN3CCN(CC4CCN(C(=O)c5ccc(C(=O)N[C@H]6CC[C@H](Oc7ccc(C#N)c(Cl)c7)CC6)cc5)CC4)CC3)cc2)c(O)cc1O
IC50 [1]: 112 nM | IC50 [2]: 65.5 nM

Drug uptake [10]: Not Active | Drug uptake [11]: Not Active | Drug uptake [12]: Not Active | Activity [4]: Tde | Activity [13]: Dose-Dependent Effect
Structure (SMILES): CC(C)c1cc(-c2n[nH]c(=O)n2-c2ccc(CN3CCN(C)CC3)cc2)c(O)cc1O
IC50 [1]: 107 nM | Activity [14]: inactive | Activity [15]: inactive

Structure (SMILES): CC(C)c1cc(-c2n[nH]c(=O)n2-c2ccc(CN3CCN(CC4CCN(c5ccc(C(=O)N[C@H]6CC[C@H](Oc7ccc(C#N)c(Cl)c7)CC6)cn5)CC4)CC3)cc2)c(O)cc1O
IC50 [1]: 110 nM | IC50 [2]: 45.9 nM

Structure (SMILES): CC(C)c1cc(-c2n[nH]c(=O)n2-c2ccc(CN3CCN(CC4CCN(c5ncc(C(=O)N[C@H]6CC[C@H](Oc7ccc(C#N)c(C(F)(F)F)c7)CC6)cn5)CC4)CC3)cc2)c(O)cc1O
IC50 [1]: 267 nM | IC50 [2]: 89.9 nM

Structure (SMILES): CC(C)c1cc(-c2n[nH]c(=O)n2-c2ccc(CN3CCN(C(=O)CCCNC(=O)c4ccc(C(=O)N[C@H]5CC[C@H](Oc6ccc(C#N)c(Cl)c6)CC5)cc4)CC3)cc2)c(O)cc1O
IC50 [1]: > 1000 nM | IC50 [2]: > 1000 nM

Drug uptake [16]: Not Active | Drug uptake [17]: Not Active | Drug uptake [18]: Active | Drug uptake [19]: Active | Drug uptake [20]: Not Active | Drug uptake [21]: Not Active | Drug uptake [22]: Not Active
Structure (SMILES): CC(C)c1cc(-c2n[nH]c(=O)n2-c2ccc(CN3CCN(C(=O)CCCCCN4/C(=C/C=C/C=C/C5=[N+](C)c6ccccc6C5(C)C)C(C)(C)c5ccccc54)CC3)cc2)c(O)cc1O

Structure (SMILES): N#Cc1ccc(O[C@H]2CC[C@H](NC(=O)c3cncnc3)CC2)cc1Cl
IC50 [1]: 153 nM | Activity [6]: inactive | Activity [7]: inactive | Activity [8]: inactive | Activity [9]: inactive
